Assays:
[1] = molecular target: T1, Phosphatidylinositol 4,5-bisphosphate 3-kinase catalytic subunit delta isoform (Homo sapiens, UniProt O00329); test: Inhibition of human PI3Kdelta using PIP2 as substrate after 1 hr
T1 sequence (O00329 whole entry): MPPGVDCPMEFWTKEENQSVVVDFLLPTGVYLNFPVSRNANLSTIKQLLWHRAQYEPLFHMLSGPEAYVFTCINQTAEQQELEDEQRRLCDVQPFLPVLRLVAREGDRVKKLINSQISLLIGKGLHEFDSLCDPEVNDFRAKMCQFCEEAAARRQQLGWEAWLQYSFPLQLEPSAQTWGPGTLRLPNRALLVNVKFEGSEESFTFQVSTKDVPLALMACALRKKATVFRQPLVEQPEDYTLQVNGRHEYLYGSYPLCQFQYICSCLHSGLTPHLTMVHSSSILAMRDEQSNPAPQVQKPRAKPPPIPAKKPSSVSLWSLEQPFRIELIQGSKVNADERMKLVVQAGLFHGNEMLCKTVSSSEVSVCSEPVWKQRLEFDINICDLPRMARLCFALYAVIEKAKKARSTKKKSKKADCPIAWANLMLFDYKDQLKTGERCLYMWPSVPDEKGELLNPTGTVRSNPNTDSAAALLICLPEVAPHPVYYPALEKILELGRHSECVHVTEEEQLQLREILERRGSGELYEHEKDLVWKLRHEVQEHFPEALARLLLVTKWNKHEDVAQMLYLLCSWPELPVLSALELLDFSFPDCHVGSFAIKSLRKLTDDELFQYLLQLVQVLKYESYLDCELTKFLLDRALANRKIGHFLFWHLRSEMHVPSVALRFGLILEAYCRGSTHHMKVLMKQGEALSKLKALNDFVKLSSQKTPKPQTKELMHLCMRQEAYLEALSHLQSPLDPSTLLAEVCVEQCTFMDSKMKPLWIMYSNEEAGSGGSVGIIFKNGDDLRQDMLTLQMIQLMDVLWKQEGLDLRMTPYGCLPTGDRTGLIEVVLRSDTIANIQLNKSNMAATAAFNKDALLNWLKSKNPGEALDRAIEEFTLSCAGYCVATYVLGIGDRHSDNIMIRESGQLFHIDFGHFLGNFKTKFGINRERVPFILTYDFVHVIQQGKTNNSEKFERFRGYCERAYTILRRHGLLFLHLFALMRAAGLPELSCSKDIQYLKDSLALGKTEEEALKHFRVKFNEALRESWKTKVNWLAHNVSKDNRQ

[2] = molecular target: Phosphatidylinositol 4,5-bisphosphate 3-kinase catalytic subunit alpha isoform (Homo sapiens, UniProt P42336); test: Inhibition of human PI3Kalpha using PIP2 as substrate after 1 hr
Chain of Phosphatidylinositol 4,5-bisphosphate 3-kinase catalytic subunit alpha isoform (P42336 whole entry, looked up, canonical isoform): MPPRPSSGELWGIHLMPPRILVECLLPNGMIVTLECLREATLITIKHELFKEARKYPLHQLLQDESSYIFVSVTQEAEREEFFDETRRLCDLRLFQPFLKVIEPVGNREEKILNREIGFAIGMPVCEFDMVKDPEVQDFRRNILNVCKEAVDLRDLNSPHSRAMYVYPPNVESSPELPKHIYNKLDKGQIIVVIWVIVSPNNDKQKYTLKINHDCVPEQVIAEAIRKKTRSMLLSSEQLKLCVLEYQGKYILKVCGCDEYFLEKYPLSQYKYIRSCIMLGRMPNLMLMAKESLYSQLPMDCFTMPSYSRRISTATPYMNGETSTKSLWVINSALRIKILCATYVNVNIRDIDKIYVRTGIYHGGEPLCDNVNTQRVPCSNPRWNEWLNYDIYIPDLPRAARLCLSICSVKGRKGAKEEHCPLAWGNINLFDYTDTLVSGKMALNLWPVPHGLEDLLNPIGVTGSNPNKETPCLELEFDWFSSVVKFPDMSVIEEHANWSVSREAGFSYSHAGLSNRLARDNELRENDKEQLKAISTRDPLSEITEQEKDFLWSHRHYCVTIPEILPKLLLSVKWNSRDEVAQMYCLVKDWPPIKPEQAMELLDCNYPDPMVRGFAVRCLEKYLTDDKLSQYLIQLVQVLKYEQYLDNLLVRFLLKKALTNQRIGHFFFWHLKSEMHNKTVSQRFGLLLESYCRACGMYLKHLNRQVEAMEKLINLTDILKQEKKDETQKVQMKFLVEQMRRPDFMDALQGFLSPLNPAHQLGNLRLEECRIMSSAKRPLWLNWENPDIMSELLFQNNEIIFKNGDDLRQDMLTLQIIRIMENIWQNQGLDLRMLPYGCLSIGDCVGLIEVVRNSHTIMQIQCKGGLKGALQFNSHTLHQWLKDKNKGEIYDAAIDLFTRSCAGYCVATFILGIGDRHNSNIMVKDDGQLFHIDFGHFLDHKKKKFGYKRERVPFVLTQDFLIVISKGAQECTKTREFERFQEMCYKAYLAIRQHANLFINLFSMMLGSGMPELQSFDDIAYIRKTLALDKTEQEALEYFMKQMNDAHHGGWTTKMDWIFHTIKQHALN

[3] = molecular target: Phosphatidylinositol 4,5-bisphosphate 3-kinase catalytic subunit beta isoform (Homo sapiens, UniProt P42338); test: Inhibition of human PI3Kbeta using PIP2 as substrate after 1 hr
Chain of Phosphatidylinositol 4,5-bisphosphate 3-kinase catalytic subunit beta isoform (P42338 whole entry, canonical isoform): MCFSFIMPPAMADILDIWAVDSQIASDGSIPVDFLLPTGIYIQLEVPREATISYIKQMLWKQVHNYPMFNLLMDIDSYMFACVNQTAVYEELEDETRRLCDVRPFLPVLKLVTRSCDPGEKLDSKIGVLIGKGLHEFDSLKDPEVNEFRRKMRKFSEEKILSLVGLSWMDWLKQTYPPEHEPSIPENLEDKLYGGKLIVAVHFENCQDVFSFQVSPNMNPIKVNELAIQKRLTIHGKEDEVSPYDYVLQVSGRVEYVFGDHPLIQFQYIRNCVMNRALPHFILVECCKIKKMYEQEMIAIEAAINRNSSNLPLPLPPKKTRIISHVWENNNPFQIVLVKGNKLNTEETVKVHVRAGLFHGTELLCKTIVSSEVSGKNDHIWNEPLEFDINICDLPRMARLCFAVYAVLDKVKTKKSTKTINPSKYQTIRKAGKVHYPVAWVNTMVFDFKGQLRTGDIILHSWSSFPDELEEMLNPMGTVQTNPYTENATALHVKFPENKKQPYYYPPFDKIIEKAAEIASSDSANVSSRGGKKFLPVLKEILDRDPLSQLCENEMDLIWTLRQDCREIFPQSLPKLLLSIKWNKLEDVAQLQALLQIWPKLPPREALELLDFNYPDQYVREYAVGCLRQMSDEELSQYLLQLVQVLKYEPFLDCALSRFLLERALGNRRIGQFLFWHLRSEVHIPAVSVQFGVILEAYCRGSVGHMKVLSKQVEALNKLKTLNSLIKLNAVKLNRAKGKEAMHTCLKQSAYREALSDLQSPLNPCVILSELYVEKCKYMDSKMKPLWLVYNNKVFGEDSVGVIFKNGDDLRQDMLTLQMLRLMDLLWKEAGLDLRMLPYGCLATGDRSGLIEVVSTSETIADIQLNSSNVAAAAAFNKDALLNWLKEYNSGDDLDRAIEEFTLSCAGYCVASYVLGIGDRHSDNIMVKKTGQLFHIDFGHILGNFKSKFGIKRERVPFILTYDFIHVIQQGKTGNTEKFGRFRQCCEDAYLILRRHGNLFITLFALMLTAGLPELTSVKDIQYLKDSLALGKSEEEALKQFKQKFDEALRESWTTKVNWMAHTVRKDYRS

[4] = molecular target: Phosphatidylinositol 4,5-bisphosphate 3-kinase catalytic subunit gamma isoform (Homo sapiens, UniProt P48736); test: Inhibition of human PI3Kgamma using PIP2 as substrate after 1 hr
Chain of Phosphatidylinositol 4,5-bisphosphate 3-kinase catalytic subunit gamma isoform (P48736 whole entry, canonical isoform): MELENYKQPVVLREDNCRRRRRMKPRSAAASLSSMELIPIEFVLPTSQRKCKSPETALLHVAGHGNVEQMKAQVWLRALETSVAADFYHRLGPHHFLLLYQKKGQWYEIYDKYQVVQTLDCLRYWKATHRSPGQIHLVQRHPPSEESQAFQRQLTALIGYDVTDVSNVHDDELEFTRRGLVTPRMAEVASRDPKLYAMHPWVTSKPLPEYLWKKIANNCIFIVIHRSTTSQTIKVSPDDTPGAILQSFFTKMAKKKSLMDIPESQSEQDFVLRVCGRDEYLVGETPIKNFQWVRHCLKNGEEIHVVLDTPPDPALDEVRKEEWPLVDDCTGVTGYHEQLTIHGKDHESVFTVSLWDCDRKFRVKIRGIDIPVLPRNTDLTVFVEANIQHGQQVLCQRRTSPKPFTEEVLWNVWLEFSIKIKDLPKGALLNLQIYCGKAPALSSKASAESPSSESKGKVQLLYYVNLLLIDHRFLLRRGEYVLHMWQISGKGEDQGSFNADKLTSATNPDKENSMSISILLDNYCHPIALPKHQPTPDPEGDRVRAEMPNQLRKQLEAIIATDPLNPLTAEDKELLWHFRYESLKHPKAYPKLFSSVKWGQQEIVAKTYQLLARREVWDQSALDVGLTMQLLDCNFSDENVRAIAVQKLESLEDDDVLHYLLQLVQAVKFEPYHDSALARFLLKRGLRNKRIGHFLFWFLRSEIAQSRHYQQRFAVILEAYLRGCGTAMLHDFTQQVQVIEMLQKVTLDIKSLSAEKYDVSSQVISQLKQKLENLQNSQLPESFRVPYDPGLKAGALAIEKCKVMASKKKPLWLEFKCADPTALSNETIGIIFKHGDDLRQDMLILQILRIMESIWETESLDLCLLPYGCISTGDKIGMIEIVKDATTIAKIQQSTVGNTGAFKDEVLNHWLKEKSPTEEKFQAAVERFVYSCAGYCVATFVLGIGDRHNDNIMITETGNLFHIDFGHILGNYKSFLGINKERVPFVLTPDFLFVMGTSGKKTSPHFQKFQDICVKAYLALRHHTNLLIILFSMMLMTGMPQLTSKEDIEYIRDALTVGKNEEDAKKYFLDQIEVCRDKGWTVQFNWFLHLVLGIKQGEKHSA

[5] = molecular target: Serine/threonine-protein kinase mTOR (Homo sapiens, UniProt P42345); test: Inhibition of mTOR (unknown origin) assessed as reduction in p70S6K phosphorylation
TMD8 = test: Antiproliferative activity against human TMD8 cells; assay type: functional, cell-based

| SMILES | IC50 [1] | IC50 [5] | other results |
| --- | --- | --- | --- |
| Cc1ccc(Cn2c(=O)n(C)c3c4cc(-c5cnc6ccccc6c5)ccc4ncc32)cc1 | 18.4 nM |  |  |
| CC[C@H](Nc1ncnc2[nH]cnc12)c1nc2cccc(F)c2c(=O)n1-c1ccccc1 [IDELALISIB] |  | > 1000 nM | IC50 (TMD8): 795 nM |
| CC(C)c1ccc(Cn2c(=O)n(C)c3c4cc(-c5cnc6ccccc6c5)ccc4ncc32)cc1 | 28.3 nM |  |  |
| COc1ccc(Cn2c(=O)n(C)c3c4cc(-c5cnc(OC)c(NS(=O)(=O)C(C)C)c5)ccc4ncc32)cc1 | 6.2 nM |  |  |

Continued by falling IC50 [1], values first:

| IC50 [1] | IC50 [5] | SMILES | other results |
| --- | --- | --- | --- |
| 5.9 nM |  | COc1ccc(Cn2c(=O)n(C)c3c4cc(-c5cnc(OC)c(NS(=O)(=O)C6CC6)c5)ccc4ncc32)cc1 |  |
| 4.1 nM | 580 nM | COc1ccc(Cn2c(=O)n(C)c3cnc4ccc(-c5cnc(OC)c(NS(C)(=O)=O)c5)cc4c32)cc1 | IC50 [2]: 289 nM; IC50 [3]: 241 nM; IC50 [4]: 42 nM |

From ChEMBL document CHEMBL4390691, “Discovery of 1,3-dihydro-2H-imidazo[4,5-c]quinolin-2-ones based novel, potent and PI3Kδ selective inhibitors” (Bioorg Med Chem Lett, 2019)
